Data reported in publication PMC12441834, “Highly Potent and Subtype-Selective Sperm-Specific Potassium Channel SLO3 Inhibitors Display High Tissue Exposure in the Murine Female Reproductive Tract” (ACS Pharmacology & Translational Science, 2025).
Values joined by “and” are separate entries in the source; they are usually repeats but may differ in a detail not shown here. Equal entries are not always repeated. Where two headings read alike, the source gives them in different places.

Assays:
[1] = molecular target: Adrenergic α2A (Homo sapiens, UniProt P08913); assay: LeadProfilingScreen radioligand binding
[2] = molecular target: Opiate δ1 (OP1, DOP) (Homo sapiens, UniProt P41143); assay: LeadProfilingScreen radioligand binding
[3] = tested on: human sperm hyperactivated motility; assay: Human sperm motility by CASA; type: cell-based; conditions: for inhibition of human sperm hyperactivated motility, incubation: 10 μM during 2 h in capacitation media; for inhibition of human sperm hyperactivated motility, acute / inhibition at 10 µM: 10 μM for 1 min after 2 h capacitation; for effect on progressive motility of human sperm / effect on total motility of human sperm: 10 μM, acute; for inhibition at 10 µM: Homo sapiens, Sperm, read-out: inhibition of human sperm hyperactivated motility, acute
Experimental: Human sperm samples were obtained by masturbation from deidentified patients after 3 to 5 days of abstinence. The Washington University Fertility and Reproductive Medicine Center confirmed that they met normal semen parameters according to the World Health Organization (≥15 million sperm per mL, ≥40% total motility, ≥32% progressive motility). Samples were allowed to liquefy for 1 h at room temperature. Sperm were purified by the swim-up method as previously described. , Briefly, within 2 h of production, sperm were allowed to swim up in noncommercial human tubular fluid medium (HTF; 98 mM NaCl, 4.7 mM KCl, 0.4 mM KH2PO4, 2 mM CaCl2, 0.2 mM MgSO4, 20 mM HEPES, 3 mM glucose, 21 mM lactic acid, 0.3 mM sodium pyruvate, pH adjusted to 7.4 with NaOH, 285 mmol/kg osmolarity measured with a VAPRO Vapor Pressure Osmometer 5600, ELITechGroup, Belgium) for 1 h at 37 °C without CO2.
Human sperm collected by swim-up were incubated in capacitating media (HTF + 5 mg/mL of BSA + 25 mM NaHCO3 for 2 h). After this incubation hyperactivated motility was measured by computer-assisted sperm analysis (CASA) as previously described. Briefly, 3 μL of sperm suspension was loaded in a 20-μm Leja standard count four-chamber slide. Motility was measured with a HTR-CEROS II v.1.7 (Hamilton-Thorne Research). Sperm were classified as hyperactivated if they met the following criteria: curvilinear velocity (VCL) > 150 μm/s, lateral head displacement (ALH) > 7.0 μm, and linearity coefficient (LIN) < 50%. For acute inhibition experiments, 10 μM of our compound of interest was added for 1 min prior to recording motility. For inhibitor incubation experiments, the compound of interest or DMSO was added during the 2 h incubation in capacitating media.

[4] = molecular target: Transporter, GABA (Rattus norvegicus, UniProt P23978); assay: LeadProfilingScreen radioligand binding
[5] = molecular target: Dopamine D1 (Homo sapiens, UniProt P21728); assay: LeadProfilingScreen radioligand binding
[6] = Multispecies hepatocyte MetID; type: in vitro ADME, human; conditions: 4 h incubation with hepatocytes, 10 μM
Experimental: (§1) Metabolites were identified after preincubating each compound at a 10 μM final concentration with 2.5 × 10^5 hepatocytes from human, dog, cynomolgus monkey, and rat in 200 μL of Optiincubate buffer (BioIVT, Westbury, NY). […] After centrifugation, 60 μL of the supernatant was transferred to 60 μL of water for LC-MS analysis. Samples were analyzed using a Thermo Scientific Vanquish UHPLC consisting of a VH-P10-A pump, a VH-A10-A sampler module, a VH-C10-A column compartment, and the VF-D11-A UV detector coupled to an Orbitrap Fusion Lumos instrument with UVPD. A binary solvent system consisting of (A) water with 0.1% formic acid and (B) acetonitrile with 0.1% formic acid was used with an Accucore Vanquish C18+, 2.1 mm × 100 mm, 1.5 μm, UHPLC column maintained at 40 °C. The data generated by data-dependent acquisition via normal acquisition and AcquireX were processed manually with Thermo Scientific FreeStyle and assisted by Compound Discoverer 3.3.1.111 to aid in the structural assignments.

[7] = molecular target: Estrogen Erα (Homo sapiens, UniProt P03372); assay: LeadProfilingScreen radioligand binding
[8] = Multispecies hepatocyte MetID; type: in vitro ADME, dog; conditions: 4 h incubation with hepatocytes, 10 μM
Experimental: as §1

[9] = molecular target: Dopamine D4.4 (Homo sapiens, UniProt P21917); assay: LeadProfilingScreen radioligand binding
[10] = Distribution ratio female reproductive organs versus plasma after IV dosing; type: in vivo; conditions: C57Bl/6, mouse, female mice, 1 mg/kg IV; for Kp at 0.25 h: reproductive organs / plasma
Experimental: Samples were analyzed via electrospray ionization (ESI) LC-MS/MS on an AB Sciex 4500 (Foster City, CA) triple-quadrupole instrument that was coupled with an Agilent 1290 Infinity Binary Pump and multisampler (Santa Clara, CA) and concentrations (ng/mL or ng/g) were determined using a matrix-matched 10-point standard curve and then converted to nM concentrations. Quantitation of compounds was performed via AB Sciex Multiquant software using the raw analyte:IS peak area ratios. The typical detection range was 0.5 ng/mL to ≥5000 ng/mL utilizing a quadratic equation regression with 1/x² weighting. Correction for dilution of all tissue samples was performed postquantitation. The corrections for dilution in the extraction buffer employed correction factors specific to each tissue weight.
In-life phase–Compounds were formulated in PEG400:DMSO (4:1, v/v) at a concentration of 1 mg/mL and administered as a single 1 mg/kg dose (1 mL/kg) to female C57Bl/6 mice (n = 2–4; 30 g body weight) via intravenous (i.v.) injection. Blood samples were collected serially from a surgically implanted carotid artery catheter in each animal over multiple postadministration time points (0.25, 0.5, 1, 3, 6, and 24 h) into chilled, K2EDTA anticoagulant-fortified tubes and immediately placed on wet ice. The blood samples were stored at −80 °C until analysis by LC-MS/MS.
At the same time points, female reproductive organs were obtained by rapid dissection, rinsed with PBS, pooled by lots of 2 and immediately frozen in individual tissue collection boxes (dry ice). All tissues and blood samples were stored at −80 °C until analysis by LC-MS/MS.

[11] = molecular target: Histamine H2 (Homo sapiens, UniProt P25021); assay: LeadProfilingScreen radioligand binding
[12] = female reproductive organs (pooled), pooled organs, read-out: Reproductive Organs concentration
[13] = plasma, read-out: Plasma concentration

Sequence of Dopamine D4.4 (P21917 whole entry): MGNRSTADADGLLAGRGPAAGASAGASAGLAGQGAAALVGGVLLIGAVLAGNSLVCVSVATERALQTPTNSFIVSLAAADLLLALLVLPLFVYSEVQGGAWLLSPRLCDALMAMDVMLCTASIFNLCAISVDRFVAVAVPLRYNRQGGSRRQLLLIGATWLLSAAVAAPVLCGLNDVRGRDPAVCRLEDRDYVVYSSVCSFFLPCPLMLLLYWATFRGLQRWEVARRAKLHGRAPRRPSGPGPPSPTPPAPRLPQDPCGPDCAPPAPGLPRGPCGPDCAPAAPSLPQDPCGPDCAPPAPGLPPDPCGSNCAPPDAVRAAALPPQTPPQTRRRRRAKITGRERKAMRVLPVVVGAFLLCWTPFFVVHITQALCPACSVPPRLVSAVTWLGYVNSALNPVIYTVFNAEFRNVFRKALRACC
Sequence of Dopamine D1 (P21728 whole entry): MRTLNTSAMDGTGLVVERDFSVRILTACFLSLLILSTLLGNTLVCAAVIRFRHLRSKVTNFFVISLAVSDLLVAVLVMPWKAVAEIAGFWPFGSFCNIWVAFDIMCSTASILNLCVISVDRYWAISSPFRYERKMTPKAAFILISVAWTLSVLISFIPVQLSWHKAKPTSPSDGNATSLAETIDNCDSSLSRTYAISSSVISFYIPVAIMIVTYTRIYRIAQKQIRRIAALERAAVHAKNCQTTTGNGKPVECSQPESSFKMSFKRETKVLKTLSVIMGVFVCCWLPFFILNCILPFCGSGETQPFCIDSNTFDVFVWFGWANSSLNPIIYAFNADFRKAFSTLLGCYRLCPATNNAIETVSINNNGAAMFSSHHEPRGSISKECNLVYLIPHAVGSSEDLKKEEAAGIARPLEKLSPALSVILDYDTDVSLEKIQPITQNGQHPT
Sequence of Estrogen Erα (P03372 whole entry): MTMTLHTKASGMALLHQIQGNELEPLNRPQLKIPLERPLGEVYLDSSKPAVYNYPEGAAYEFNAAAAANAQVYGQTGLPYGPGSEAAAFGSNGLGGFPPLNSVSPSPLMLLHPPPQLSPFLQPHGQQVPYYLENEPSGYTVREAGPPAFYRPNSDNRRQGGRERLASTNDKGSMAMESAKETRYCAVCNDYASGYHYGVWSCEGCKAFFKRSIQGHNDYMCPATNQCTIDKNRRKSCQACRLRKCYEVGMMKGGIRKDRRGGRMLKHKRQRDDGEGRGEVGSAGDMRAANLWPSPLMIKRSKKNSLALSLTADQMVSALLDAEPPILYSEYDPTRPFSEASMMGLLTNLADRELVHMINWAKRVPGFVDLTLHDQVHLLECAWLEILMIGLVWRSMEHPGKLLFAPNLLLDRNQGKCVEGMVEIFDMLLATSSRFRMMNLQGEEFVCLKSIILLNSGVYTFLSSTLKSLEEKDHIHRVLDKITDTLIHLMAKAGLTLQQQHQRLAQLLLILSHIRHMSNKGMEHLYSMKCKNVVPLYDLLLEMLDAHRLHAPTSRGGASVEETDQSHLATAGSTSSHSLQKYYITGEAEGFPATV
Sequence of Opiate δ1 (OP1, DOP) (P41143 whole entry): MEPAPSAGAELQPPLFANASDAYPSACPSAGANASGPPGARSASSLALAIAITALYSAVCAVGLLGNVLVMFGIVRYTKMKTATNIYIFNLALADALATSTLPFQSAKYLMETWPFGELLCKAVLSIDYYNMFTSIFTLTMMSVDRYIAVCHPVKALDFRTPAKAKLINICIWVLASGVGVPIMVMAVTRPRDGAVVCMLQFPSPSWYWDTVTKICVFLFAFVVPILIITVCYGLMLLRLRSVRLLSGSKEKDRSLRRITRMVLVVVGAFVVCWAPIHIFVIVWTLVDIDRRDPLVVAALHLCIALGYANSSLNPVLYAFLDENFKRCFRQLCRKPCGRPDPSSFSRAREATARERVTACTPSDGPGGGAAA
Sequence of Adrenergic α2A (P08913 whole entry): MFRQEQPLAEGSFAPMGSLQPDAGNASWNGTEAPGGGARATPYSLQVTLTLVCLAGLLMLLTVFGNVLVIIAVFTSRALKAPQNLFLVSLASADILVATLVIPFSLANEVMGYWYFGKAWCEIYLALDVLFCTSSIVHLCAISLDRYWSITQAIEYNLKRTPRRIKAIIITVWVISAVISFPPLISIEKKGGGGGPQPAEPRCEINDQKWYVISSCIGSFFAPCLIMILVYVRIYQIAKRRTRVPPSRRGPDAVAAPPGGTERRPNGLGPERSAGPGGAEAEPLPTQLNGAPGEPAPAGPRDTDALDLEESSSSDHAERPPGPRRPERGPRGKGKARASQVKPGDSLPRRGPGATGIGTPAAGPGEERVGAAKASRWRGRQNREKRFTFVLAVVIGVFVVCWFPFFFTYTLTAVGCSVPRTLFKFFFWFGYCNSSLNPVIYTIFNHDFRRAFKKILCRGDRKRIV
Sequence of Histamine H2 (P25021 whole entry): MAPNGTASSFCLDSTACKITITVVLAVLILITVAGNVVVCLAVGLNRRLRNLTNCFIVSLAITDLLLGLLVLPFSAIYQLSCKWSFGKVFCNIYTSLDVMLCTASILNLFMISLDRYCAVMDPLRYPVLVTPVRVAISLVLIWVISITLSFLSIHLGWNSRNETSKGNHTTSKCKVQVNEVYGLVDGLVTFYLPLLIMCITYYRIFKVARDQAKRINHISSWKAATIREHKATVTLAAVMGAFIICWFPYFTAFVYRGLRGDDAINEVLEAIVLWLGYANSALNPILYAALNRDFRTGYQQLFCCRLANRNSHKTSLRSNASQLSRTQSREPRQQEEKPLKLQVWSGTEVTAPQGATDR

SMILES | inhibition at 10 µM [1] [%] | inhibition at 10 µM [2] [%] | inhibition of human sperm hyperactivated motility, incubation [3] [%] | inhibition of human sperm hyperactivated motility, acute [3] [%] | effect on progressive motility of human sperm [3] | effect on total motility of human sperm [3] | inhibition at 10 µM [3] [%] | inhibition at 10 µM [4] [%] | inhibition at 10 µM [5] [%] | % of Parent Related Material, Human [6] | inhibition at 10 µM [7] [%] | % of Parent Related Material, Dog [8] | inhibition at 10 µM [9] [%] | concentration at 0.25 h [10, 12] [ng/mL] | concentration at 0.25 h [10, 13] [ng/mL] | Kp at 0.25 h [10] | inhibition at 10 µM [11] [%]
Cc1cc(Cl)cc2sc(O[C@H]3CCN(C(=O)CCCS(=O)(=O)c4cccc(Br)c4)C[C@H]3F)nc12 [VU6047606] | -4 | 12 | 61 | > 70 | without changing | without changing | 71 | 4 | 25 | 91.66% and > 82% | 6 | 93.78% and > 82% | -8 | 56.6 | 121 | 0.47 | -24
O=C(c1ccc(OCc2ccc(OC(F)(F)F)cc2)cc1)N1CCN(c2ccc(C(F)(F)F)cn2)CC1 [VU6032735] | -3 | 7 | 50 | > 70 | without changing | without changing | 76 | -4 | 12 | > 98% | 11 | > 98% | -5 | 1070 | 85.3 | 12.7 | 6
